According to the supplement of paper PMC10307832:

Key:
Assay in all cases: relative viability (nuclei count vs DMSO), 5 days (fraction); higher = more cells survive
[1] = compound: Cn1cc(-c2cnn3c(N)c(Br)c([C@@H]4CCCNC4)nc23)cn1 + CC(=O)c1c(C)c2cnc(Nc3ccc(N4CCNCC4)cn3)nc2n(C2CCCC2)c1=O [Palbociclib] (partner 0.5 µM)
Summary of the method: (§1)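 Values are medians from duplicate plates. Each reflects relative viability, defined as the nuclei count of treated wells over that of vehicle wells. Lung cancer cell lines in 1536-well plates were pin-tool dosed one day after seeding with one drug alone or with a fixed anchor-drug dose plus five library-drug doses (not always all listed) in √10 steps, then fixed, stained and imaged at 4× after 5 days.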

[2] = compound: Cn1cc(-c2cnn3c(N)c(Br)c([C@@H]4CCCNC4)nc23)cn1 + CC(C)C[C@H](NC(=O)[C@H](Cc1ccccc1)NC(=O)c1cnccn1)B(O)O [Bortezomib] (partner 0.002 µM)
Summary of the method: as §1

[3] = compound: Cn1cc(-c2cnn3c(N)c(Br)c([C@@H]4CCCNC4)nc23)cn1 + COc1cc2c(Oc3ccc(NC(=O)C4(C(=O)Nc5ccc(F)cc5)CC4)cc3F)ccnc2cc1OCCCN1CCOCC1 [Foretinib] (partner 0.25 µM)
Summary of the method: as §1

[4] = compound: Cn1cc(-c2cnn3c(N)c(Br)c([C@@H]4CCCNC4)nc23)cn1 + CS(=O)(=O)N1CCN(Cc2cc3nc(-c4cccc5[nH]ncc45)nc(N4CCOCC4)c3s2)CC1 [Pictilisib] (partner 1 µM)
Summary of the method: as §1

HCC-78
relative viability ([1]; first compound 0.05 µM): 0.445 | relative viability ([1]; first compound 0.1581 µM): 0.391 | relative viability ([1]; first compound 0.5 µM): 0.532 | relative viability ([1]; first compound 1.581 µM): 0.439 | relative viability ([1]; first compound 5 µM): 0.488 | relative viability ([2]; first compound 0.05 µM): 0.482 | relative viability ([2]; first compound 0.1581 µM): 0.567 | relative viability ([2]; first compound 0.5 µM): 0.556 | relative viability ([2]; first compound 1.581 µM): 0.511 | relative viability ([2]; first compound 5 µM): 0.39 | relative viability ([3]; first compound 0.1581 µM): 0.666 | relative viability ([3]; first compound 0.5 µM): 0.561 | relative viability ([3]; first compound 1.581 µM): 0.535 | relative viability ([3]; first compound 5 µM): 0.576 | relative viability ([4]; first compound 0.05 µM): 0.245 | relative viability ([4]; first compound 0.1581 µM): 0.246 | relative viability ([4]; first compound 0.5 µM): 0.11 | relative viability ([4]; first compound 1.581 µM): 0.155 | relative viability ([4]; first compound 5 µM): 0.154

HCC-366
relative viability ([1]; first compound 0.05 µM): 0.399 | relative viability ([1]; first compound 0.1581 µM): 0.463 | relative viability ([1]; first compound 0.5 µM): 0.359 | relative viability ([1]; first compound 1.581 µM): 0.267 | relative viability ([1]; first compound 5 µM): 0.3 | relative viability ([2]; first compound 0.05 µM): 1.03 | relative viability ([2]; first compound 0.1581 µM): 1.2 | relative viability ([2]; first compound 0.5 µM): 1.06 | relative viability ([2]; first compound 1.581 µM): 0.734 | relative viability ([2]; first compound 5 µM): 0.334 | relative viability ([3]; first compound 0.05 µM): 0.967 | relative viability ([3]; first compound 0.1581 µM): 0.887 | relative viability ([3]; first compound 0.5 µM): 0.93 | relative viability ([3]; first compound 1.581 µM): 0.855 | relative viability ([3]; first compound 5 µM): 0.865 | relative viability ([4]; first compound 0.05 µM): 0.278 | relative viability ([4]; first compound 0.1581 µM): 0.17 | relative viability ([4]; first compound 0.5 µM): 0.156 | relative viability ([4]; first compound 1.581 µM): 0.205 | relative viability ([4]; first compound 5 µM): 0.263

HCC-827
relative viability ([1]; first compound 0.05 µM): 0.48 | relative viability ([1]; first compound 0.1581 µM): 0.437 | relative viability ([1]; first compound 0.5 µM): 0.491 | relative viability ([1]; first compound 1.581 µM): 0.471 | relative viability ([1]; first compound 5 µM): 0.451 | relative viability ([2]; first compound 0.05 µM): 0.919 | relative viability ([2]; first compound 0.1581 µM): 1.03 | relative viability ([2]; first compound 0.5 µM): 1.18 | relative viability ([2]; first compound 1.581 µM): 1.1 | relative viability ([2]; first compound 5 µM): 1.01 | relative viability ([3]; first compound 0.05 µM): 1.09 | relative viability ([3]; first compound 0.1581 µM): 1.11 | relative viability ([3]; first compound 0.5 µM): 1.06 | relative viability ([3]; first compound 1.581 µM): 1.02 | relative viability ([3]; first compound 5 µM): 1.02 | relative viability ([4]; first compound 0.05 µM): 0.999 | relative viability ([4]; first compound 0.1581 µM): 1.13 | relative viability ([4]; first compound 0.5 µM): 0.974 | relative viability ([4]; first compound 1.581 µM): 1 | relative viability ([4]; first compound 5 µM): 0.928

HOP-62
relative viability ([1]; first compound 0.05 µM): 0.438 | relative viability ([1]; first compound 0.1581 µM): 0.5 | relative viability ([1]; first compound 0.5 µM): 0.485 | relative viability ([1]; first compound 1.581 µM): 0.417 | relative viability ([1]; first compound 5 µM): 0.334 | relative viability ([2]; first compound 0.05 µM): 0.847 | relative viability ([2]; first compound 0.1581 µM): 1.02 | relative viability ([2]; first compound 0.5 µM): 1.28 | relative viability ([2]; first compound 1.581 µM): 0.708 | relative viability ([2]; first compound 5 µM): 0.294 | relative viability ([3]; first compound 0.05 µM): 1.17 | relative viability ([3]; first compound 0.1581 µM): 1.16 | relative viability ([3]; first compound 0.5 µM): 1.06 | relative viability ([3]; first compound 1.581 µM): 1 | relative viability ([3]; first compound 5 µM): 0.985 | relative viability ([4]; first compound 0.05 µM): 0.896 | relative viability ([4]; first compound 0.1581 µM): 0.699 | relative viability ([4]; first compound 0.5 µM): 0.586 | relative viability ([4]; first compound 1.581 µM): 0.444 | relative viability ([4]; first compound 5 µM): 0.455

IA-LM
relative viability ([2]; first compound 0.05 µM): 0.823 | relative viability ([2]; first compound 0.1581 µM): 0.886 | relative viability ([2]; first compound 0.5 µM): 0.678 | relative viability ([2]; first compound 1.581 µM): 0.532 | relative viability ([2]; first compound 5 µM): 0.32 | relative viability ([3]; first compound 0.05 µM): 1.19 | relative viability ([3]; first compound 0.1581 µM): 1.23 | relative viability ([3]; first compound 0.5 µM): 1.06 | relative viability ([3]; first compound 1.581 µM): 0.861 | relative viability ([3]; first compound 5 µM): 0.54 | relative viability ([4]; first compound 0.05 µM): 0.357 | relative viability ([4]; first compound 0.1581 µM): 0.372 | relative viability ([4]; first compound 0.5 µM): 0.33 | relative viability ([4]; first compound 1.581 µM): 0.206 | relative viability ([4]; first compound 5 µM): 0.196

LC-2-ad
relative viability ([1]; first compound 0.05 µM): 0.499 | relative viability ([1]; first compound 0.1581 µM): 0.515 | relative viability ([1]; first compound 0.5 µM): 0.441 | relative viability ([1]; first compound 1.581 µM): 0.435 | relative viability ([1]; first compound 5 µM): 0.483 | relative viability ([2]; first compound 0.05 µM): 1.03 | relative viability ([2]; first compound 0.1581 µM): 1.15 | relative viability ([2]; first compound 0.5 µM): 0.938 | relative viability ([2]; first compound 1.581 µM): 1.06 | relative viability ([2]; first compound 5 µM): 0.935 | relative viability ([3]; first compound 0.05 µM): 0.878 | relative viability ([3]; first compound 0.1581 µM): 0.999 | relative viability ([3]; first compound 0.5 µM): 1.09 | relative viability ([3]; first compound 1.581 µM): 0.938 | relative viability ([3]; first compound 5 µM): 0.908 | relative viability ([4]; first compound 0.05 µM): 0.546 | relative viability ([4]; first compound 0.1581 µM): 0.466 | relative viability ([4]; first compound 0.5 µM): 0.335 | relative viability ([4]; first compound 1.581 µM): 0.349 | relative viability ([4]; first compound 5 µM): 0.272

LCLC-97TM1
relative viability ([1]; first compound 0.05 µM): 0.248 | relative viability ([1]; first compound 0.1581 µM): 0.236 | relative viability ([1]; first compound 0.5 µM): 0.242 | relative viability ([1]; first compound 1.581 µM): 0.242 | relative viability ([1]; first compound 5 µM): 0.178 | relative viability ([2]; first compound 0.05 µM): 0.318 | relative viability ([2]; first compound 0.1581 µM): 0.546 | relative viability ([2]; first compound 0.5 µM): 0.626 | relative viability ([2]; first compound 1.581 µM): 0.333 | relative viability ([2]; first compound 5 µM): 0.204 | relative viability ([3]; first compound 0.05 µM): 0.862 | relative viability ([3]; first compound 0.1581 µM): 1 | relative viability ([3]; first compound 0.5 µM): 0.93 | relative viability ([3]; first compound 1.581 µM): 0.909 | relative viability ([3]; first compound 5 µM): 0.956 | relative viability ([4]; first compound 0.05 µM): 0.16 | relative viability ([4]; first compound 0.1581 µM): 0.149 | relative viability ([4]; first compound 0.5 µM): 0.26 | relative viability ([4]; first compound 1.581 µM): 0.152 | relative viability ([4]; first compound 5 µM): 0.143

LK-2
relative viability ([1]; first compound 0.05 µM): 0.703 | relative viability ([1]; first compound 0.1581 µM): 0.658 | relative viability ([1]; first compound 0.5 µM): 0.678 | relative viability ([1]; first compound 1.581 µM): 0.542 | relative viability ([1]; first compound 5 µM): 0.431 | relative viability ([3]; first compound 0.05 µM): 1.18 | relative viability ([3]; first compound 0.1581 µM): 1.27 | relative viability ([3]; first compound 0.5 µM): 0.887 | relative viability ([3]; first compound 5 µM): 0.901 | relative viability ([4]; first compound 0.05 µM): 0.597 | relative viability ([4]; first compound 0.1581 µM): 0.508 | relative viability ([4]; first compound 0.5 µM): 0.574 | relative viability ([4]; first compound 1.581 µM): 0.444 | relative viability ([4]; first compound 5 µM): 0.306

NCI-H358
relative viability ([1]; first compound 0.05 µM): 0.151 | relative viability ([1]; first compound 0.1581 µM): 0.134 | relative viability ([1]; first compound 0.5 µM): 0.128 | relative viability ([1]; first compound 1.581 µM): 0.104 | relative viability ([1]; first compound 5 µM): 0.111 | relative viability ([3]; first compound 0.05 µM): 0.685 | relative viability ([3]; first compound 0.1581 µM): 0.768 | relative viability ([3]; first compound 0.5 µM): 0.654 | relative viability ([3]; first compound 1.581 µM): 0.59 | relative viability ([3]; first compound 5 µM): 0.628 | relative viability ([4]; first compound 0.05 µM): 0.314 | relative viability ([4]; first compound 0.1581 µM): 0.346 | relative viability ([4]; first compound 0.5 µM): 0.309 | relative viability ([4]; first compound 1.581 µM): 0.352 | relative viability ([4]; first compound 5 µM): 0.304
